US20200113902A1, “COMPOSITIONS AND METHODS FOR TREATING CANCERS WITH COVALENT INHIBITORS OF CYCLIN-DEPENDENT KINASE 7 (CDK7)” (Syros Pharmaceuticals, Inc., priority 2017, published 2020)

Tests used:
[1] = test system: MCL1 protein in CAL-120 cells; test: Western blot of BCL2 family proteins, CAL-120; assay type: cell-based, human; conditions: 50 nM or 100 nM, 24 hours
Description: Cytotoxic cancer cell lines HCC70 and TOV21G, and cytostatic cancer cell lines T47D and COV318 were seeded in wells of a six-well dish at a density of 1×10^6 cells/well and allowed to adhere overnight. Cells were then treated with 50 nM of Compound 1 for 16 or 24 hours, or with DMSO (0 hours) representing a negative control. Cells were harvested and placed on ice, and resuspended in RIPA lysis buffer supplemented with protease and phosphatase inhibitors. Clarified lysates prepared with 4×LSD running buffer and boiled at 95° C. for 5 minutes. Equivalent amounts of sample (10 μg total protein) were run on a 4-12% Bis-Tris gel and transferred to a PDVF membrane for Western blotting using standard Western blotting protocols. Membranes were blocked with Licor TBS blocking buffer then probed with antibodies for BCL-XL, BCL-2, MCL1, BID, and GAPDH visualized using and Odyssey imager (FIGS. 23A and 23D).
In a similar experiment, TNBC breast cancer cell lines HCC70, MDAMB468, MDAMB453 and CAL-120 were grown as described above and treated with DMSO, 50 nM Compound 1 or 100 nM Compound 1 for 24 hours. Protein samples were prepared as described above for Western blotting using antibodies specific for the indicated proteins in FIG. 29A. […]

OV15696 xenograft = test: Ovarian PDX OV15696, tumor volume; assay type: in vivo, mouse; conditions: 40 or 30 mg/kg i.v. BIW
Description: Patient-derived xenograft (PDX) models from ovarian carcinoma patients (OV5387, OV14702, OV14972, OV15398, OV15576, OV15696, OV15612, OV15631) were established in NOD-SCID mice at Crown Bioscience (San Diego, USA). Cryo vials containing tumor cells were thawed and prepared for injection into mice. Cells were washed in PBS, counted, and resuspended in cold PBS at a concentration of 50,000-100,000 viable cells/100 ul. Cell suspensions were mixed with an equal volume of Cultrex ECM and kept on ice during transport to the vivarium. Cells were prepared for injections by withdrawing ECM-Cell mixture into a chilled slip-tip syringe fitted with a 26G 7/8 (0.5 mm×22 mm) needle. The filled syringes were kept on ice to avoid the solidification of ECM. Each mouse was inoculated subcutaneously in the right flank with 200 uL of the cell suspension. Tumor sizes were measured in two dimensions using a caliper, and the volumes were expressed in mm3 using the formula: V=0.5 a×b^2 where a and b are the longest and shortest diameters of the tumor, respectively. Compound 1 treatment was started when the average tumor size reached 150-200 mm^3.
Compound 1 was formulated in w/v 20% Captisol (pH 4-6) and administered by i.v. twice weekly (BIW) at a final dose of 40 mg/kg or 30 mg/kg in a 10 ml/kg volume. Tumor volumes were measured twice weekly over the course of the study. […]

[2] = test system: Rad51, CHEK1 and CHEK2 mRNA in MDA-MB-468, MDA-MB-231, Ca1120 and MDA-MB-453; test: Quantitative PCR of DNA damage repair genes, breast cancer cell lines; assay type: cell-based; conditions: 50 nM, 6 hrs
Description: Breast cancer cell lines MDA-MB-468, MDA-MB-231, Ca1120 and MDA-MB-453 were plated at 200,000 cells/well in a 6-well plate the day before treatment. The next day the cells were treated with vehicle, 50 nM Compound 1 or 50 nM Paclitaxel for 6 hrs, after which cells were harvested and total RNA collected using RNeasy mini kit (Qiagen). Total RNA (500 ng) was reverse transcribed using Quantitect Reverse Transcription kit (Qiagen). Quantitative PCR for each of Rad51, CHEK1 and CHEK2 was performed on QuantStudio 6 Flex (Applied Biosystems) using Power SYBR green PCR master mix (Thermo Fisher Scientific) and primers specific for each of those genes. The change in gene expression, relative to housekeeping gene RPL27, was quantified using DDCt method.

MDA-MB-468 cells = test: Growth rate (GR) inhibition, Cell Titer Glo 2.0, MDA-MB-468; assay type: cell-based, human; conditions: concentrations greater than 100 nM, 72 hours
Description: To determine the effect of Compound 1 on the growth of TNBC cancer cells, four different human TNBC cell lines were used—HCC70, MDA-MB-468, MDA-MB-453 and CAL120. Cells from each cell line were plated separately at 50,000 cells/mL (100 uL per well) in a black-walled 96 well plate and allowed to adhere overnight. In parallel, cells were plated in a separate day 0 plate to measure the number of cells present upon compound addition. The next day, Compound 1 was added to the wells with an HP 300e compound dispenser in a 10-point serial dilution and cells incubated for 72 hours. On the same day Cell Titer Glo 2.0 reagent was added to the day 0 plate, and the luminescence measured with an Envision plate reader per manufacture protocol. After 72 hours Cell Titer Glo 2.0 reagent was added to the plates and the luminescence measured. GR curves were calculated as follows: […]
wherein x(c) is the Compound 1 treatment luminescence); x0 is the average Day 0 luminescence); and xctrl is the average DMSO treatment luminescence, and graphed using Graph Pad Prism. A GR value of 1 indicates no growth inhibition; GR values between 0 and 1 indicate partial growth inhibition; a GR value of 0 indicates cytostasis (no change from baseline); GR values less than 0 indicate cytotoxicity (cell number less than baseline); a GR value of −1 indicates complete cell loss.

## CN(C)C/C=C/C(=O)Nc1ccc(C(=O)N[C@@]2(C)CCC[C@@H](Nc3ncc(Cl)c(-c4c[nH]c5ccccc45)n3)C2)nc1 [Compound 1, N-((1S,3R)-3-(5-chloro-4-(1H-indol-3-yl)pyrimidin-2-ylamino)-1-methylcyclohexyl)-5-((E)-4-(dimethylamino)but-2-enamido)picolinamide]
[1]
  MCL1 protein level (Western blot): downregulated
OV15696 xenograft
  Response to treatment (tumor growth): non-responders
[2]
  mRNA expression from genes involved in DNA repair (Rad51, CHEK1, CHEK2): Downregulation
MDA-MB-468 cells
  Inhibition of growth (GR curve): almost complete inhibition of growth
